Data on 16 compounds can be found in patent US20230374007A1, “COMPOUNDS AND THEIR USE IN TREATING CANCER” (AstraZeneca AB, priority 2020, published 2023).

In experiment [1] the target is T1, cereblon (CRBN)—DNA damage protein 1 (DDB1) complex (Homo sapiens, UniProt Q96SW2).
T1 construct: encoding amino acid residues 1 to 442 (Uniprot Q96SW2); hexahistidine (N); thrombin cleavage site (N); made in house; host or cells: Sf9 insect cells (baculovirus co-infection)
The experiment is described as follows: Cereblon HTRF binding assay. The essentials: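 Biotinylated His-tagged CRBN-DDB1 (0.2 nM, baculovirus-expressed) was combined with 0.2 nM terbium cryptate streptavidin and 2 nM Cy5-lenalidomide probe in 50 mM Tris-HCl pH 7.5, 100 mM NaCl, 1 mM TCEP, 500 μM EDTA, 0.01% Pluronic F127 for 2 h at r.t. HTRF ratio was normalized to plate controls. IC50 came from a Hill fit, given as mean of one or more experiments.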
In general terms: In TR-FRET formats the signal depends on donor and acceptor labels being close together.

Experiment [2] deals with T2, endogenous IKZF1 protein in NB4 cells (Homo sapiens, UniProt Q13422).
T2 construct: the endogenous IKZF1 protein; endogenous in cells; host or cells: NB4
As to the kind of experiment: Endogenous Ikaros 1 (IKZF1) degradation assay (SDS-PAGE). In kind it is cell-based. The following applies: 1 μM and 10 μM, 20 h of treatment.

In experiment [3] the target is T3, endogenous SALL4 protein in Kelly cells (Homo sapiens, UniProt Q9UJQ4).
T3 construct: the endogenous SALL4 protein; endogenous in cells; host or cells: Kelly
The experiment is described as follows: Endogenous SALL4 degradation assay (SDS-PAGE). In kind it is cell-based. Particulars: 10 μM, 20 h of treatment.

Experiment [4] deals with T4, human BRD4 (amino acid residues 42 to 169) (Homo sapiens, UniProt O60885).
T4 construct: encoding amino acid residues 42 to 169 (Uniprot 060885) of human BRD4; hexahistidine (N, cleaved yes); TEV cleavage site (N, cleaved yes); made in house; host or cells: E. coli BL21 Gold (DE3)
As to the kind of experiment: BRD4 surface plasmon resonance (SPR) assay. The format is binding. Particulars: biotinylated BRD4, 25° C., read-out: BRD4 Affinity Kd.

Experiment [5] addresses T5, BRD4 tagged to a HiBiT tag in HEK 293 cells (Homo sapiens, UniProt O60885).
T5 construct: at the N-terminus of endogenous BRD4; endogenous in cells
As to the kind of experiment: HiBiT degradation assay. The format is cell-based. Particulars: for DC50: BRD4 degradation, HiBiT-BRD4 HEK 293 cells, 18 h; for Dmax: HEK293. How it is done:
Determination of PROTAC potency was determined in HEK 293 cells expressing BRD4 tagged to a HiBiT tag. To generate those cells, HiBiT tag (aminoacid sequence: […]) was inserted, via CRISPR CAS9 knock-in, at the N-terminus of endogenous BRD4.
To measure success of knock-in the cells were then tested for their level of luminescence. Finally a stable pool was generated from them. In a typical experiment, 14×10^3 cells are seed in the wells of a 384 well plate (white flat bottom, tissue culture ready, corning 781080) in 40 μL of culture medium (DMEM, 10% FBS and 2 mM Gln). Immediately after seeding, PROTAC compounds, diluted in DMSO solution, are added to the wells via ECHO 555 acoustic dispenser at the appropriate concentration. DMSO is used as a not active control and as normalization. In each plate a series of compounds of known DC50 are included as quality control. The 384 well plate is placed in an incubator at 37° C. and 5% CO2 for 18 h. At the end of the incubation period plates are removed from the incubator and the medium is replaced with 10 μL of PBS and 10 μL of complete NanoGlo HiBiT solution (Promega N3040, consisting of 9.7 μL of Lysis buffer, with 0.1 μL of LgBiT protein and 0.2 μL of nanoluciferase substrate). After 15 minutes of incubation at r.t., the luciferase activity of the plate is recorded in a luminometer. dBET6 (MCE® Cat. No.: HY-112588) was used for normalization when calculating Dmax.
(In general: HiBiT is a short tag that completes a luciferase, so light tracks the accessible tagged protein.)

T3 sequence (Q9UJQ4 whole entry): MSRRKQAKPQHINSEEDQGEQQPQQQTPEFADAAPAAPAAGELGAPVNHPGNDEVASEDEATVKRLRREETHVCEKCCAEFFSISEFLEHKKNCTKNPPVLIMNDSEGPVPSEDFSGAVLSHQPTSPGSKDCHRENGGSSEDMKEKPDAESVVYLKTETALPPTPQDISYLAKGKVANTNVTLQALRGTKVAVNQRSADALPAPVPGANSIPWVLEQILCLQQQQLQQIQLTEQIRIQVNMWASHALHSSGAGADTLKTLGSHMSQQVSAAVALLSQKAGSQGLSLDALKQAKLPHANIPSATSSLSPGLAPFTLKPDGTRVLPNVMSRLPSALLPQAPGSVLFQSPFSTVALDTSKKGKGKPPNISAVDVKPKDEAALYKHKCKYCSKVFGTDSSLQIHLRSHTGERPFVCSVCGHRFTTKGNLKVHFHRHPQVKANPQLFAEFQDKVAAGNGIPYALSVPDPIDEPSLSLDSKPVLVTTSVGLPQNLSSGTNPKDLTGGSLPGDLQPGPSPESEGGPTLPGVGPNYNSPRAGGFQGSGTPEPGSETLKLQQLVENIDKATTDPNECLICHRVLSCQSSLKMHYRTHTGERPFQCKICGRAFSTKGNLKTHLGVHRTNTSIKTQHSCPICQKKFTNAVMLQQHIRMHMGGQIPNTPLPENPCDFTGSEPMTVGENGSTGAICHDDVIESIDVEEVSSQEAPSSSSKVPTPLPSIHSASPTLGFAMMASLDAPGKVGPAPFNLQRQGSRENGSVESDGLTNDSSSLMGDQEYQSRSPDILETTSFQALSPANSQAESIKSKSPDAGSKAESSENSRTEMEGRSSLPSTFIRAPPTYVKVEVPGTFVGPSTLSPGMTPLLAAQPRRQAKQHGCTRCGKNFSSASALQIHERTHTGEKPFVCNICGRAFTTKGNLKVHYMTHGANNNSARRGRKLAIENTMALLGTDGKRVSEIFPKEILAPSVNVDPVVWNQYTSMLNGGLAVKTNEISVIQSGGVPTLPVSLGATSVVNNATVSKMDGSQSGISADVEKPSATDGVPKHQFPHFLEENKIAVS
T1 sequence (Q96SW2 with tags, fused parts or gaps): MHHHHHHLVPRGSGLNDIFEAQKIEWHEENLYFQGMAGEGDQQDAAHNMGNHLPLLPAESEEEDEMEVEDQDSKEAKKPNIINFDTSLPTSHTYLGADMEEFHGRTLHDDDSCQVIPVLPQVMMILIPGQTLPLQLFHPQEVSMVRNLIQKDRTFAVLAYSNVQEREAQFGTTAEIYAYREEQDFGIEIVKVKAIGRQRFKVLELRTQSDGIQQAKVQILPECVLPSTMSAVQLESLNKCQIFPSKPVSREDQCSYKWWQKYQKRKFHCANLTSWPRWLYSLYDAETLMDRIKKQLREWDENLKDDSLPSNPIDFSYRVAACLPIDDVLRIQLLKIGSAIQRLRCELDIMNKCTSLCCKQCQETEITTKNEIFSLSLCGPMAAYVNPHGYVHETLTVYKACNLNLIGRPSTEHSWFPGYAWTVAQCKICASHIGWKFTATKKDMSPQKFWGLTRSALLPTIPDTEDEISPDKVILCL
T2 sequence (Q13422 whole entry): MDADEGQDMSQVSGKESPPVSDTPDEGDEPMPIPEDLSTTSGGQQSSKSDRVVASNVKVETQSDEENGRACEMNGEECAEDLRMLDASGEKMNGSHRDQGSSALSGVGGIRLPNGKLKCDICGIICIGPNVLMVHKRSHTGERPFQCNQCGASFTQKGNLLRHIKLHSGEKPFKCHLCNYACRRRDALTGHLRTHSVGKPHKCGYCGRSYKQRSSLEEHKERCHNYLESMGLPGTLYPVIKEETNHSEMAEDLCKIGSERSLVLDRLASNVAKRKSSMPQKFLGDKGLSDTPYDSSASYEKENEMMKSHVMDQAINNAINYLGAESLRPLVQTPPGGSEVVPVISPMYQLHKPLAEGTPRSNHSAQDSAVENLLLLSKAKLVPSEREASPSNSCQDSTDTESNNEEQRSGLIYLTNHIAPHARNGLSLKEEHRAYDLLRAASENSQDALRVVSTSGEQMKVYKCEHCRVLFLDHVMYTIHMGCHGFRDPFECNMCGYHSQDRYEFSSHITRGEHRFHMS

With `O=C1CCN(c2cncc3[nH]ccc23)C(=O)N1` [Example 17, 1-(1H-Pyrrolo[2,3-c]pyridin-4-yl)dihydropyrimidine-2,4 (1H,3H)-dione], in experiment [1], the concentration for half-maximal inhibition (IC50) amounted to 206 nM. Also, the IKZF1 degradation result in experiment [2] is recorded as “no observable/meaningful IKZF1 degradation”.
`CN1CCCc2ccc(N3CCC(=O)NC3=O)cc21` [Example 33, 1-(1-Methyl-1,2,3,4-tetrahydroquinolin-7-yl)dihydropyrimidine-2,4 (1H,3H)-dione] gave an IC50 in experiment [1] of 762 nM. In addition, the SALL4 degradation result in experiment [3] was “no observable/meaningful SALL4 degradation”. In experiment [2], the IKZF1 degradation result is on record as “no observable/meaningful IKZF1 degradation”.
Consider `O=C1CCN(c2ccc3cnoc3c2)C(=O)N1` [Example 39, 1-(Benzo[d]isoxazol-6-yl)dihydropyrimidine-2,4 (1H,3H)-dione], for which, in experiment [1], the IC50 was 82 nM. Also, the IKZF1 degradation result in experiment [2] was “no observable/meaningful IKZF1 degradation”.
Take `O=C1CCN(c2cnc3cc[nH]c3c2)C(=O)N1` [Example 40, 1-(1H-Pyrrolo[3,2-b]pyridin-6-yl)dihydropyrimidine-2,4 (1H,3H)-dione]: in experiment [1], the IC50 worked out at 186 nM. In addition, the IKZF1 degradation result in experiment [2] was “no observable/meaningful IKZF1 degradation”.
In turn, `O=C1CCN(c2ccc3cc[nH]c3c2)C(=O)N1` [Example 55, 1-(1H-Indol-6-yl)dihydropyrimidine-2,4 (1H,3H)-dione] registered an IC50 in experiment [1] of 220 nM. The SALL4 degradation result in experiment [3] is “no observable/meaningful SALL4 degradation”. In addition, in experiment [2], the IKZF1 degradation entry was “no observable/meaningful IKZF1 degradation”.
In experiment [1], `Cn1ccc2ccc(N3CCC(=O)NC3=O)cc21` [Example 59, 1-(1-Methyl-1H-indol-6-yl)dihydropyrimidine-2,4 (1H,3H)-dione] showed an IC50 of 329 nM. Besides, the SALL4 degradation result in experiment [3] is “no observable/meaningful SALL4 degradation”.
In the case of `Cc1sc2c(c1C)C(c1ccc(Cl)cc1)=N[C@@H](CC(=O)NCCNC(=O)Cc1c[nH]c3cc(N4CCC(=O)NC4=O)ccc13)c1nnc(C)n1-2` [Example 127, (S)-2-(4-(4-Chlorophenyl)-2,3,9-trimethyl-6H-thieno[3,2-f][1,2,4]triazolo[4,3-a][1,4]-diazepin-6-yl)-N-(2-(2-(6-(2,4-dioxotetrahydropyrimidin-1 (2H)-yl)-1H-indol-3-yl)acetamido)ethyl)-acetamide], the equilibrium dissociation constant (Kd) in experiment [4] is 13 nM. Moreover, in experiment [5], the half-maximal degradation concentration (DC50) turned out to be 198 nM and the Dmax was 97.2%.
For `Cc1sc2c(c1C)C(c1ccc(Cl)cc1)=N[C@@H](CC(=O)NCCOCCOCCNC(=O)Cc1c[nH]c3cc(N4CCC(=O)NC4=O)ccc13)c1nnc(C)n1-2` [Example 128, (S)-2-(4-(4-Chlorophenyl)-2,3,9-trimethyl-6H-thieno[3,2-f][1,2,4]triazolo[4,3-a][1,4]-diazepin-6-yl)-N-(2-(2-(2-(2-(6-(2,4-dioxotetrahydropyrimidin-1 (2H)-yl)-1H-indol-3-yl)acetamido)-ethoxy)ethoxy)ethyl)acetamide], the Kd in experiment [4] stood at 19 nM. For the same compound, in experiment [5], it took 1140 nM to reach half-maximal degradation (DC50) and the Dmax is 73.1%.
Take `Cc1sc2c(c1C)C(c1ccc(Cl)cc1)=N[C@@H](CC(=O)NCCOCCOCCOCCOCCOCCOCCNC(=O)Cc1c[nH]c3cc(N4CCC(=O)NC4=O)ccc13)c1nnc(C)n1-2` [Example 129, (S)-2-(4-(4-Chlorophenyl)-2,3,9-trimethyl-6H-thieno[3,2-f][1,2,4]triazolo[4,3-a][1,4]-diazepin-6-yl)-N-(1-(6-(2,4-dioxotetrahydropyrimidin-1 (2H)-yl)-1H-indol-3-yl)-2-oxo-6,9,12,15,18,21-hexaoxa-3-azatricosan-23-yl)acetamide]: in experiment [4], the dissociation constant (Kd) was determined as 30 nM. Further, in experiment [5], it took 970 nM to reach half-maximal degradation (DC50) and the Dmax was 111%.
`O=c1ccn(-c2ccc3cn(C4CCNCC4)nc3c2)c(=O)[nH]1` [Example 131, 1-(2-(Piperidin-4-yl)-2H-indazol-6-yl)pyrimidine-2,4 (1H,3H)-dione]: in experiment [1], the IC50 turned out to be 2130 nM.
Regarding `CN1CCC(n2cc3ccc(-n4ccc(=O)[nH]c4=O)cc3n2)CC1` [Example 132, 1-(2-(1-Methylpiperidin-4-yl)-2H-indazol-6-yl)pyrimidine-2,4 (1H,3H)-dione], the half-maximal inhibitory concentration (IC50) in experiment [1] was 2160 nM.
`CN(C)c1cc(N2CCC(=O)NC2=O)cc2[nH]ccc12` [Example 133, 1-(4-(Dimethylamino)-1H-indol-6-yl)dihydropyrimidine-2,4 (1H,3H)-dione]: the concentration for half-maximal inhibition (IC50) in experiment [1] is 2820 nM.
The same measure, in the same setting: then `N#Cc1cc(N2CCC(=O)NC2=O)cc2[nH]ccc12` [Example 134, 6-(2,4-Dioxotetrahydropyrimidin-1 (2H)-yl)-1H-indole-4-carbonitrile], with 1660 nM; and `N#Cc1ncc(N2CCC(=O)NC2=O)c2cc[nH]c12` [Example 135, 4-(2,4-dioxotetrahydropyrimidin-1 (2H)-yl)-1H-pyrrolo[2,3-c]pyridine-7-carbonitrile], with 594 nM.
As to `Nc1cccc2c1CN(C1CCC(=O)NC1=O)C2=O` (stereo not drawn) [lenalidomide, reference compound], in experiment [2], the IKZF1 degradation result is reported as “degradation of IKZF1 to an undetected level”.
On to `O=C1CCC(N2C(=O)c3ccccc3C2=O)C(=O)N1` (stereo not drawn) [thalidomide, reference compound], for which the SALL4 degradation result in experiment [3] is “degradation of SALL4 to an undetected level”.

The IC50 is the point on the concentration scale where inhibition reaches its midpoint. The Kd is the concentration at which binding is half-saturated. For orientation: DC50 means the concentration at which degradation of the target reaches its halfway point. High values mean degradation only at high concentration, low ones degradation at low concentration. Usually Dmax stands for the greatest extent of degradation seen.
